The nature of one data set: in vivo. As to conditions: female, NMRI nude (nu/nu), mouse, total radioactivity; for tissue to tissue ratio at 0.75 h: iv, tumor-to-muscle ratio. As to the method:
(§1) 8–12 weeks old female NMRI nude (nu/nu) mice (body weight 22–32 g) (Charles River, Sulzfeld, Germany) were kept under specified pathogen free (SPF) conditions at 23 °C, 55% relative humidity and a 12 h light/dark cycle in the central animal facility of the University of Regensburg using type III cages from Tecniplast (Hohenpeißenberg, Germany). The animals took food (Ssniff, Soest, Germay) and autoclaved tap water ad libitum. For tumor cell implantation, the culture medium of HT-29 cells was removed, the cells were detached from the culture flask by incubation for 2 min in trypsin-EDTA and the suspension was centrifuged (5 min, rt, 164 g). The supernatant was removed, and the cell pellet was washed twice with sterile PBS or serum-free medium (5–6 mL). The cells were resuspended in sterile PBS to a final density of 1 × 10^7 cells/mL. Mice were injected subcutaneously into the right flank with the HT-29 cell suspension (100 µL). After 2–4 weeks, when the tumors had reached a size of 50–500 mm^3, animals were used for biodistribution and PET/computed tomography (CT) imaging studies (note: for PET/CT studies, the tumor size was at least 200 mm^3).
(§2) Aliquots of the tracer stock were diluted in PBS to give a volume of 200 µL. 80–100 µL (0.9–5.9 MBq) of this solution were injected into anesthetized HT-29 tumor-bearing nude mice via the tail vein. Animals were kept on a heating plate (set to 40 °C) or a pre-heated (ca. 45 °C) gel cushion and were killed by cardiac puncture 10 min, 25 min or 45 min p.i. immediately followed by taking blood, urine and tissue (i.e., tumor, kidney, liver, gall bladder, spleen, small intestine, heart, lung, brain, pancreas, femur and muscle) samples. Radioactivity measurement of the samples was performed with the Canberra Genie 2000 system described for the determination of the distribution coefficient logD7.4. Decay-corrected measured activities (cpm) were converted into activities (MBq) on the basis of an activity measurement with a ^68Ge-calibration standard source (Eckert&Ziegler, Berlin, Germany). Sample activities were converted to percentage of injected dose per gram tissue (%ID/g). Blocking experiments were performed by co-injection of the tracer with NTS1R ligand 48 (ca. 700 nmol per mouse). Mice were killed 45 min p.i. and analyzed as described above. The animals used for the 45-min biodistribution experiments were the same as used for the PET/CT imaging studies.

Data set [1] deals with HT-29 tumor-bearing nude mice. The data set is described as follows: in vivo. The note with it: mouse. As for the experimental part: as §1, §2
Another data set can be described thus: physchem. Format: physicochemical. As to conditions: pH 7.4. As for the experimental part: The distribution coefficients logD7.4 of the radiotracers [^68Ga]21, [^68Ga]33, [^68Ga]37 and [^68Ga]56 were determined by adding a solution of the tracer in PBS (100 μL, ca. 0.20–0.34 MBq) to a mixture of n-octanol (500 μL) and PBS (pH 7.4) (400 μL) in a 2-mL HPLC vial (Agilent, article number 5182-0714) with a screw cap equipped with a septum (Agilent, article number 5182-0717). After vortexing the mixture for 2 min, two 100 μL aliquots of the upper phase (n-octanol) were taken. To obtain a sample of the lower phase (PBS), the HPLC vial was held upside down and approximately 100–150 µL of the aqueous phase were removed using a syringe equipped with a canula and collected in a reaction vessel. Two 10 µL aliquots of the aqueous phase were subjected to measurement. The activity of the aliquots was measured with a Canberra Genie 2000 system (Canberra, Rüsselsheim, Germany) using the Gamma Acquisition & Analysis Software Genie 2000 3.4.1. Experiments were performed in triplicate. The decay-corrected counts per minute (cpm) values were averaged (n = 3) and transformed to a distribution coefficient logD7.4 according to logD7.4 = log(Aoctanol/Aaqueous), where Aoctanol is the mean of the decay-corrected cpm values obtained for samples of the n-octanol phase, and Aaqueous is the mean of the decay-corrected cpm values obtained for samples of the aqueous phase.

[2] abbreviates: Uptake (%ID/g) gall bladder (bile).
[3] abbreviates: female, NMRI nude (nu/nu), 0.75 h.

This note sets out measurements from PMC9564337, “Development of a Neurotensin-Derived ^68Ga-Labeled PET Ligand with High In Vivo Stability for Imaging of NTS1 Receptor-Expressing Tumors” (Cancers, 2022).

The tissue uptake is the share of the injected amount in each gram of the tissue. What is called logD is the decadic logarithm of the distribution of all forms, ionised or not, between an organic phase and buffer at a given pH. The low end stands for lower lipophilicity, the high end for higher lipophilicity.

As for `CC[C@H](C)[C@H](NC(=O)[C@@H](NC(=O)[C@@H]1CCCN1C(=O)[C@H](CCCNC(=N)N)NC(=O)[C@H](CCCNC(N)=NC(=O)NCCCCNC(=O)CN1CCN(CC(=O)O)CCN(CC(=O)O)CCN(CC(=O)O)CC1)NC)C(C)(C)c1ccc(O)cc1)C(=O)N[C@@H](CC(C)C)C(=O)O` [[^68Ga]56, metal not drawn], the tissue uptake at 10 min was 3.1 ± 0.34 %ID/g in the data set “in vivo” (Uptake (%ID/g) blood); 0.079 ± 0.017 %ID/g in the data set “in vivo” (Uptake (%ID/g) brain); 0.95 ± 0.25 %ID/g in “in vivo” (Uptake (%ID/g) femur); 1.1 ± 0.71 %ID/g in the data set “in vivo” (setting [2]); 1.2 ± 0.1 %ID/g in the data set “in vivo” (Uptake (%ID/g) heart); 1.8 ± 0.22 %ID/g in “in vivo” (Uptake (%ID/g) intestine). Besides, the tissue uptake at 10 min in the data set “in vivo” (Uptake (%ID/g) kidney) came out at 47 ± 3.4 %ID/g; in the data set “in vivo” (Uptake (%ID/g) liver), 7.2 ± 0.83 %ID/g; in the data set “in vivo” (Uptake (%ID/g) lung) it was 2.4 ± 0.3 %ID/g; in the data set “in vivo” (Uptake (%ID/g) muscle), 1.1 ± 0.18 %ID/g; in “in vivo” (Uptake (%ID/g) pancreas), 1.3 ± 0.83 %ID/g; in “in vivo” (Uptake (%ID/g) spleen), 2.5 ± 0.25 %ID/g. Further, the tissue uptake at 10 min in “in vivo” (Uptake (%ID/g) tumor) was found to be 3.6 ± 0.2 %ID/g. In addition, the tissue uptake at 25 min in the data set “in vivo” (Uptake (%ID/g) blood) stood at 2.9 ± 1.3 %ID/g; in “in vivo” (Uptake (%ID/g) brain) it was 0.13 ± 0.11 %ID/g; in the data set “in vivo” (Uptake (%ID/g) femur) it was 0.78 ± 0.27 %ID/g; in “in vivo” (setting [2]), 1.9 ± 0.79 %ID/g; in the data set “in vivo” (Uptake (%ID/g) heart), 1.3 ± 0.49 %ID/g; in the data set “in vivo” (Uptake (%ID/g) intestine), 2.4 ± 0.68 %ID/g. The tissue uptake at 25 min in the data set “in vivo” (Uptake (%ID/g) kidney) worked out at 47 ± 7 %ID/g; in the data set “in vivo” (Uptake (%ID/g) liver) it was 5.7 ± 1.6 %ID/g; in the data set “in vivo” (Uptake (%ID/g) lung) it was 2.8 ± 1.5 %ID/g; in “in vivo” (Uptake (%ID/g) muscle), 0.57 ± 0.23 %ID/g; in “in vivo” (Uptake (%ID/g) pancreas), 1.1 ± 1.1 %ID/g; in “in vivo” (Uptake (%ID/g) spleen), 2.6 ± 0.6 %ID/g. Besides, the tissue uptake at 25 min in the data set “in vivo” (Uptake (%ID/g) tumor) came out at 7.3 ± 1.8 %ID/g. In addition, the tissue uptake at 0.75 h in “in vivo” (Uptake (%ID/g) blood) worked out at 1.3 ± 0.33 %ID/g; in the data set “in vivo” (Uptake (%ID/g) brain), 0.061 ± 0.049 %ID/g; in “in vivo” (Uptake (%ID/g) femur), 0.73 ± 0.29 %ID/g; in the data set “in vivo” (Uptake (%ID/g) heart), 0.72 ± 0.36 %ID/g; in the data set “in vivo” (Uptake (%ID/g) kidney), 55 ± 28 %ID/g; in the data set “in vivo” (Uptake (%ID/g) lung) it was 1.2 ± 0.34 %ID/g. Further, the tissue uptake at 0.75 h in the data set “in vivo” (Uptake (%ID/g) muscle) turned out to be 0.55 ± 0.23 %ID/g; in “in vivo” (Uptake (%ID/g) pancreas) it was 0.9 ± 0.57 %ID/g. The “Uptake (%ID/g) blood” value in data set [1] (setting [3]) worked out at 1.4 ± 1.0 %ID/g. In addition, in data set [1] (setting [3]), the “Uptake (%ID/g) brain” value amounted to 0.10 ± 0.074 %ID/g. Besides, the “Uptake (%ID/g) femur” value in data set [1] (setting [3]) came out at 0.65 ± 0.43 %ID/g. Also, the “Uptake (%ID/g) heart” value in data set [1] (setting [3]) was found to be 0.60 ± 0.44 %ID/g. Besides, the “Uptake (%ID/g) kidney” value in data set [1] (setting [3]) worked out at 53 ± 27 %ID/g. For the same compound, the “Uptake (%ID/g) muscle” value in data set [1] (setting [3]) is recorded as 0.68 ± 0.61 %ID/g. Further, in data set [1] (setting [3]), the “Uptake (%ID/g) pancreas” value turned out to be 0.51 ± 0.37 %ID/g. In addition, the logD in the data set “physchem” was -3.06.
Regarding `CN[C@@H](CCCNC(N)=NC(=O)NCCCCNC(=O)CN1CCN(CC(=O)O)CCN(CC(=O)O)CCN(CC(=O)O)CC1)C(=O)N[C@@H](CCCNC(=N)N)C(=O)N1CCC[C@H]1C(=O)N[C@@H](Cc1ccc(O)cc1)C(=O)N[C@H](C(=O)N[C@@H](CC(C)C)C(=O)O)C(C)(C)C` [[^68Ga]21, metal not drawn], the tissue to tissue ratio at 0.75 h in the data set “in vivo” came out at 9.5 ± 3.7. Further, the tissue uptake at 0.75 h in “in vivo” (Uptake (%ID/g) blood) is 0.63 ± 0.2 %ID/g; in the data set “in vivo” (setting [2]), 0.55 ± 0.29 %ID/g; in “in vivo” (Uptake (%ID/g) kidney), 6 ± 1.9 %ID/g; in the data set “in vivo” (Uptake (%ID/g) liver) it was 0.59 ± 0.17 %ID/g; in “in vivo” (Uptake (%ID/g) muscle), 0.21 ± 0.062 %ID/g; in the data set “in vivo” (Uptake (%ID/g) tumor), 1.9 ± 0.7 %ID/g. The tumor-to-muscle ratio in data set [1] amounted to 9.5. Besides, in “physchem”, the logD was -3.87.
`CN[C@@H](CCCNC(N)=NC(=O)NCCOCCOCCNC(=O)[C@@H](Cc1ccc(-c2ccc(F)cc2)cc1)NC(=O)CCCCCNC(=O)CN1CCN(CC(=O)O)CCN(CC(=O)O)CCN(CC(=O)O)CC1)C(=O)N[C@@H](CCCNC(=N)N)C(=O)N1CCC[C@H]1C(=O)N[C@@H](Cc1ccc(O)cc1)C(=O)N[C@H](C(=O)N[C@@H](CC(C)C)C(=O)O)C(C)(C)C` [[^68Ga]33, metal not drawn]: the tissue to tissue ratio at 0.75 h in the data set “in vivo” worked out at 4.1 ± 1.7. Further, the tissue uptake at 0.75 h in “in vivo” (Uptake (%ID/g) blood) amounted to 1.3 ± 0.29 %ID/g; in the data set “in vivo” (setting [2]) it was 2 ± 0.14 %ID/g; in the data set “in vivo” (Uptake (%ID/g) kidney), 10 ± 0.96 %ID/g; in “in vivo” (Uptake (%ID/g) liver), 16 ± 2.2 %ID/g; in the data set “in vivo” (Uptake (%ID/g) muscle), 0.41 ± 0.17 %ID/g; in the data set “in vivo” (Uptake (%ID/g) tumor) it was 1.5 ± 0.22 %ID/g. For the same compound, the tumor-to-muscle ratio in data set [1] came to 4.1. For the same compound, in the data set “physchem”, the logD is -2.48.
For `CN[C@@H](CCCNC(N)=NC(=O)NCCOCCOCCNC(=O)[C@@H](Cc1ccc(-c2ccc(F)cc2)cc1)NC(=O)CN1CCN(CC(=O)O)CCN(CC(=O)O)CCN(CC(=O)O)CC1)C(=O)N[C@@H](CCCNC(=N)N)C(=O)N1CCC[C@H]1C(=O)N[C@@H](Cc1ccc(O)cc1)C(=O)N[C@H](C(=O)N[C@@H](CC(C)C)C(=O)O)C(C)(C)C` [[^68Ga]37, metal not drawn], the tissue to tissue ratio at 0.75 h in “in vivo” turned out to be 3.4 ± 0.71. Moreover, the tissue uptake at 0.75 h is 1.9 ± 0.34 %ID/g in “in vivo” (setting [2]); 7.6 ± 0.39 %ID/g in the data set “in vivo” (Uptake (%ID/g) kidney); 4.1 ± 0.79 %ID/g in the data set “in vivo” (Uptake (%ID/g) liver); 0.5 ± 0.18 %ID/g in “in vivo” (Uptake (%ID/g) muscle); 1.6 ± 0.19 %ID/g in the data set “in vivo” (Uptake (%ID/g) tumor). In data set [1], the tumor-to-muscle ratio came to 3.4. Besides, in “physchem”, the logD was -2.59.
